Our source for the EC50 values is US9522886B2, “Pyridine derivatives” (Hoffmann-La Roche Inc., priority 2012, dated 2016).

One assay addresses human CB1 receptors (Homo sapiens (Human), UniProt P21554). Briefly: cAMP assay, CHO cells expressing human CB1 receptors. Format: cell-based.
The target of a further assay is human CB2 receptors (Homo sapiens (Human), UniProt P34972). The assay is described as follows: cAMP assay, CHO cells expressing human CB2 receptors. Format: cell-based. (cAMP levels reflect the balance of adenylyl cyclase and phosphodiesterase activity.)
The mark [1] stands for this setting: functional cAMP assay, CHO cells expressing human CB1, read-out: human CB1 EC50.
Setting [2] is: functional cAMP assay, CHO cells expressing human CB2, read-out: human CB2 EC50.

pEC50: −log10 of the molar value. Read-outs that look alike come from different tables or passages of the source. A value given as a limit tells only on which side of the number the result lay.

Chain of human CB1 receptors (P21554 whole entry): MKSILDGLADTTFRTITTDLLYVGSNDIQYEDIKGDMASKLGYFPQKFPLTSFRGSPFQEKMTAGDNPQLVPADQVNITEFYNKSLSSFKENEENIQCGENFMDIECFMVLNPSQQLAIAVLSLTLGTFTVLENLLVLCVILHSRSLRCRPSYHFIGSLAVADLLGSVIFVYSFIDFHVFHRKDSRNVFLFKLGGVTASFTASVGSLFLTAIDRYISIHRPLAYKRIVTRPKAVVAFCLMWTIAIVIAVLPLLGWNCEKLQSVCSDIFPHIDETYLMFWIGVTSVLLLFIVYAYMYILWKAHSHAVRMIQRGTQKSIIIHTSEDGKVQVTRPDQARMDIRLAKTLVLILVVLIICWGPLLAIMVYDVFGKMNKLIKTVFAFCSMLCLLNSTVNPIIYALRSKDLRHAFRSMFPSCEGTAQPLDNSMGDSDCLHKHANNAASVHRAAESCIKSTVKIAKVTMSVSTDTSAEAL
Chain of human CB2 receptors (P34972 whole entry): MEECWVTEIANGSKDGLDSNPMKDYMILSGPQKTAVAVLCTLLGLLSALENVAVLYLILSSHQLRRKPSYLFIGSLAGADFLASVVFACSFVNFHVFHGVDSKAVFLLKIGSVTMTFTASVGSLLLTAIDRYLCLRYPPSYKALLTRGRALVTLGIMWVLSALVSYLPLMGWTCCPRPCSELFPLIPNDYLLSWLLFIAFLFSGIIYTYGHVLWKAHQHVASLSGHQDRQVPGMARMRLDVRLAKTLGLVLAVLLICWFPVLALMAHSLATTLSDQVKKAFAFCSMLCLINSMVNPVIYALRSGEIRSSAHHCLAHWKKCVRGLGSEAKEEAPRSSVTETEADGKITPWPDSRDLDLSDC

In general, pEC50 refers to the negative decadic logarithm of the EC50, by convention in mol/L. Take `NC(=O)CC1(NC(=O)c2ccc(C(F)(F)F)c(OCC3CCOCC3)n2)CS(=O)(=O)C1` [Example 78, N-[3-(2-Amino-2-oxoethyl)-1,1-dioxothietan-3-yl]-6-(oxan-4-ylmethoxy)-5-(trifluoromethyl)pyridine-2-carboxamide]: the pEC50 on human CB1 receptors (setting [1]) was less than 5.00; at human CB2 receptors (setting [2]), 7.39.
Turning to `NC(=O)CC1(NC(=O)c2cccc(-c3ccc(F)c(Cl)c3)n2)CS(=O)(=O)C1` [Example 79, N-[3-(2-Amino-2-oxoethyl)-1,1-dioxothietan-3-yl]-6-(3-chloro-4-fluorophenyl)pyridine-2-carboxamide], the negative logarithm of the EC50 (pEC50) on human CB1 receptors (setting [1]) was less than 5.00; at human CB2 receptors (setting [2]) it was 7.13.
As for `NC(=O)CC1(NC(=O)c2ccc(C3CC3)c(OCC3CCCO3)n2)CS(=O)(=O)C1` (stereo not shown) [Example 80, N-[3-(2-Amino-2-oxoethyl)-1,1-dioxothietan-3-yl]-5-cyclopropyl-6-(oxolan-2-ylmethoxy)pyridine-2-carboxamide], the pEC50 was less than 5.00 on human CB1 receptors (setting [1]) and 8.62 on human CB2 receptors (setting [2]).
Regarding `NC(=O)CC1(NC(=O)c2ccc(C3CC3)c(Cc3ccc(F)cc3)n2)CNC1` [Example 81, N-[3-(2-Amino-2-oxoethyl)azetidin-3-yl]-5-cyclopropyl-6-[(4-fluorophenyl)methyl]pyridine-2-carboxamide], the results for the pEC50 on human CB1 receptors and at human CB2 receptors were less than 5.00 and 7.82, respectively.
On to `NC(=O)CC1(NC(=O)c2ccc(N3CC(F)(F)C3)c(OCC3CC3)n2)CCOC1` (stereo not shown) [Example 82, N-[3-(2-Amino-2-oxoethyl)oxolan-3-yl]-6-(cyclopropylmethoxy)-5-(3,3-difluoroazetidin-1-yl)pyridine-2-carboxamide], for which the pEC50 is less than 5.00 at human CB1 receptors (setting [1]) and 8.82 at human CB2 receptors (setting [2]).
On to `NC(=O)CC1(NC(=O)c2ccc(N3CC(F)(F)C3)c(OCC3CC3)n2)CCN(C(=O)OCc2ccccc2)C1` (stereo not shown) [Example 83, Benzyl 3-(2-amino-2-oxoethyl)-3-[[6-(cyclopropylmethoxy)-5-(3,3-difluoroazetidin-1-yl)pyridine-2-carbonyl]amino]pyrrolidine-1-carboxylate], for which the pEC50 was less than 5.00 on human CB1 receptors (setting [1]) and 5.88 on human CB2 receptors (setting [2]).
For `NC(=O)CC1(NC(=O)c2ccc(N3CC(F)(F)C3)c(OCC3CC3)n2)CCNC1` (stereo not shown) [Example 84, N-[3-(2-Amino-2-oxoethyl)pyrrolidin-3-yl]-6-(cyclopropylmethoxy)-5-(3,3-difluoroazetidin-1-yl)pyridine-2-carboxamide], the pEC50 at human CB1 receptors (setting [1]) was less than 5.00; at human CB2 receptors (setting [2]) it was 7.17.
For `NC(=O)CC1(NC(=O)c2ccc(N3CC(F)(F)C3)c(OCC3CC3)n2)CCNCC1` [Example 85, N-[4-(2-Amino-2-oxoethyl)piperidin-4-yl]-6-(cyclopropylmethoxy)-5-(3,3-difluoroazetidin-1-yl)pyridine-2-carboxamide], the pEC50 at human CB1 receptors (setting [1]) was less than 5.00; at human CB2 receptors (setting [2]), 6.57.
As to `NC(=O)CC1(NC(=O)c2ccc(C3CC3)c(OCC3CC3)n2)CCNCC1` [Example 86, N-[4-(2-Amino-2-oxoethyl)piperidin-4-yl]-5-cyclopropyl-6-(cyclopropylmethoxy)pyridine-2-carboxamide], the pEC50 on human CB1 receptors (setting [1]) is less than 5.00; at human CB2 receptors (setting [2]), 6.62.
Regarding `NC(=O)CC1(NC(=O)c2ccc(C3CC3)c(Cc3ccc(F)cc3)n2)CCOC1` (stereo not shown) [Example 87, N-[3-(2-Amino-2-oxoethyl)oxolan-3-yl]-5-cyclopropyl-6-[(4-fluorophenyl)methyl]pyridine-2-carboxamide], the negative logarithm of the EC50 (pEC50) at human CB1 receptors is 7.46; on human CB2 receptors it was 9.52.
Take `NC(=O)CC1(NC(=O)c2ccc(C3CC3)c(OCC3CC3)n2)CCOC1` (stereo not shown) [Example 88, N-[3-(2-Amino-2-oxoethyl)oxolan-3-yl]-5-cyclopropyl-6-(cyclopropylmethoxy)pyridine-2-carboxamide]: the negative-log EC50 (pEC50) was less than 5.00 at human CB1 receptors (setting [1]) and 8.70 on human CB2 receptors (setting [2]).
For `NC(=O)CC1(NC(=O)c2ccc(C3(F)CCC3)c(OCC3CC3)n2)COC1` [Example 89, N-[3-(2-Amino-2-oxoethyl)oxetan-3-yl]-6-(cyclopropylmethoxy)-5-(1-fluorocyclobutyl)pyridine-2-carboxamide], in that order: less than 5.00 and 7.92.
For the compound `NC(=O)CC1(NC(=O)c2ccc(C3(O)CCC3)c(OCC3CC3)n2)COC1` [Example 90, N-[3-(2-Amino-2-oxoethyl)oxetan-3-yl]-6-(cyclopropylmethoxy)-5-(1-hydroxycyclobutyl)pyridine-2-carboxamide], the pEC50 at human CB1 receptors (setting [1]) is less than 5.00; at human CB2 receptors (setting [2]), 8.06.
Taken in the same sequence, the figures for `NC(=O)CC1(NC(=O)c2ccc(C3(O)CCC3)c(OCC3CC3)n2)CS(=O)(=O)C1` [Example 92, N-[3-(2-Amino-2-oxoethyl)-1,1-dioxothietan-3-yl]-6-(cyclopropylmethoxy)-5-(1-hydroxycyclobutyl)pyridine-2-carboxamide] were less than 5.00 and 8.66.
For `NC(=O)CC1(NC(=O)c2ccc(C3(F)COC3)c(OCC3CC3)n2)COC1` [Example 93, N-[3-(2-Amino-2-oxoethyl)oxetan-3-yl]-6-(cyclopropylmethoxy)-5-(3-fluorooxetan-3-yl)pyridine-2-carboxamide], the pEC50 on human CB1 receptors (setting [1]) was less than 5.00; on human CB2 receptors (setting [2]), 7.83.
For the compound `NC(=O)CC1(NC(=O)c2ccc(C3(O)COC3)c(OCC3CC3)n2)COC1` [Example 94, N-[3-(2-Amino-2-oxoethyl)oxetan-3-yl]-6-(cyclopropylmethoxy)-5-(3-hydroxyoxetan-3-yl)pyridine-2-carboxamide], the pEC50 at human CB1 receptors (setting [1]) is less than 5.00; on human CB2 receptors (setting [2]), 6.60.
As for `NC(=O)CC1(NC(=O)c2ccc(C3(O)CCC3)c(OCC3CC3)n2)CSC1` [Example 95, N-[3-(2-Amino-2-oxoethyl)thietan-3-yl]-6-(cyclopropylmethoxy)-5-(1-hydroxycyclobutyl)pyridine-2-carboxamide], the negative-log EC50 (pEC50) on human CB1 receptors (setting [1]) was less than 5.00; at human CB2 receptors (setting [2]), 8.96.
For `NC(=O)CC1(NC(=O)c2ccc(C3CC3)c(OCC3CC3)n2)CSC1` [Example 96, N-[3-(2-Amino-2-oxoethyl)thietan-3-yl]-5-cyclopropyl-6-(cyclopropylmethoxy)pyridine-2-carboxamide], in that order: less than 5.00 and 8.74.
Turning to `NC(=O)CC1(NC(=O)c2ccc(C(F)(F)F)c(OCC3CC3)n2)CSC1` [Example 97, N-[3-(2-Amino-2-oxoethyl)thietan-3-yl]-6-(cyclopropylmethoxy)-5-(trifluoromethyl)pyridine-2-carboxamide], the pEC50 was less than 5.00 on human CB1 receptors (setting [1]) and 7.94 at human CB2 receptors (setting [2]).
Take `NC(=O)CC1(NC(=O)c2ccc(C3(F)COC3)c(OCC3CC3)n2)CSC1` [Example 98, N-[3-(2-Amino-2-oxoethyl)thietan-3-yl]-6-(cyclopropylmethoxy)-5-(3-fluorooxetan-3-yl)pyridine-2-carboxamide]: the pEC50 is less than 5.00 at human CB1 receptors (setting [1]) and 8.92 on human CB2 receptors (setting [2]).
